Source: patent US7622492B2, “Pyrazolones as inhibitors of 11β-hydroxysteroid dehydrogenase” (Hoffmann-La Roche Inc., priority 2005, dated 2009)

Experiments:
human HSD1 = human HSD1 (Homo sapiens, UniProt P28845); assay: In vitro inhibition of purified human HSD1 (time-resolved fluorescence cortisol detection); format: biochemical; settings: purified human HSD1, cortisone substrate, 30 min; read-out: hHSD1 IC50
Protocol: Purified human HSD1 was diluted in 50 mM Tris-HCl, 100 mM NaCl, 0.1 mg/ml BSA, 0.02% Lubrol, 20 mM MgCl2, 10 mM glucose 6-phosphate, 0.4 mM NADPH, 60 U/ml glucose 6-phosphate dehydrogenase to a concentration of 1.5 μg/ml (Enzyme Solution). […] Testing compounds (40 μM) in DMSO was diluted 3 fold in series in DMSO and further diluted 20 fold in Substrate Solution. Enzyme Solution (10 μl/well) was added into 384 well microtiter plates followed by diluted compound solutions (10 μl/well) and mixed well. Samples were then incubated at […] for 30 min. EDTA/biotin-cortisol solution (10 μl/well) in 28 mM EDTA, […], 50 mM Tris-HCl, 100 mM NaCl was then added followed by 5 ul/well of anti-cortisol antibody (3.2 μg/ml) in 50 mM Tris-HCl, 100 mM NaCl, 0.1 mg/ml BSA and the solution was incubated at 37 degrees for 30 min. […] Signals were quantitated by reading time-resolved fluorescence on a Victor 5 reader (Wallac).

human 11betaHSD1 = molecular target: T1, human 11betaHSD1 (Homo sapiens, UniProt P28845); assay: Cell-based assay: HEK-293 cells stably transfected with human 11betaHSD1, cortisol by competitive ELISA; settings: HEK-293 cells stably transfected with full-length human 11betaHSD1 cDNA, cortisone 100 nM, 1 hour
T1 construct: HEK-293 cells stably transfected with full-length human 11betaHSD1 cDNA; expressed in transfected cells; host or cells: HEK-293
T1 sequence (P28845 whole entry): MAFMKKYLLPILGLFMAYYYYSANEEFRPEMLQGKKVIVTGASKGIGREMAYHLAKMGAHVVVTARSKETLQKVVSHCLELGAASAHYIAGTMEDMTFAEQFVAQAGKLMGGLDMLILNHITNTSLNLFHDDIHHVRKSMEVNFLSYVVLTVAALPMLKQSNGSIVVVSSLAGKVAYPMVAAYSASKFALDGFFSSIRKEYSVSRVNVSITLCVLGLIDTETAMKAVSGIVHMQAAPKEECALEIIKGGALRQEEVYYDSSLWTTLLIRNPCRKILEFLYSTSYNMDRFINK
Protocol: The following day, serially diluted 11bHSD1 inhibitor compounds dissolved in DMSO were added to plating media supplemented with BSA (2 mg/ml final). The final DMSO concentration was 1%. Media was aspirated from plates, and compounds in media were added to each well. The plates were incubated at 37° C. for 1 hour to allow for cellular uptake of compounds. 10 μL of substrate (cortisone) was then added to each well (100 nM final concentration) and incubated for 1 hour at 37° C. Plates were then transferred to ice and 80 μL of media transferred to a 96-well plate and stored at −30° C.
Plates were washed with PBS, 0.1% Tween-20, then washed with PBS alone. Plates were blocked with Blocking Buffer (Tropix Cat# AI075) for 2 hours at room temperature. The plates were then washed as previously described. Assay samples were thawed, diluted 1:4 in DMEM, 2 mg/mL BSA, 1% DMSO, and 24 μL was transferred to wells of a pre-coated 384-well plate, as well as varying amounts of cortisol standard. To each well, 12 μL of cortisol-conjugate and 12 μL of anti-cortisol EIA antibody were added and incubated 2 hrs at room temperature on a orbital plate shaker. The wells were then emptied by inversion, then washed three times with 100 μL of Wash Buffer (Tropix), and then 2 times with 100 μL of Assay Buffer (Tropix). 60 μL of CDP-STAR (Tropix) was added to each well and incubated 10 minutes at room temperature. Chemiluminescence was measured using a Victor V Reader (Perkin Elmer). Cortisol in each sample was interpolated from a standard curve generated with known amounts of cortisol. IC50 values were calculated using the curve fitting software XLFit3 (IDBS).

Sequence of human HSD1 (P28845 whole entry): as above

Row | IC50 (human HSD1) | IC50 (human 11betaHSD1) | Compound
1 | 291 nM | 19 nM | Cn1c2c(c(=O)n1-c1ccccc1F)[C@H]1CC[C@]2(C)C1(C)C [Example 12, (4S,7R)-2-(2-Fluoro-phenyl)-1,7,8,8-tetramethyl-1,2,4,5,6,7-hexahydro-4,7-methano-indazol-3-one]
2 | 1720 nM | 110 nM | Cn1c2c(c(=O)n1-c1ccc(F)cc1)[C@H]1CC[C@]2(C)C1(C)C [Example 17, (4S,7R)-2-(4-Fluoro-phenyl)-1,7,8,8-tetramethyl-1,2,4,5,6,7-hexahydro-4,7-methano-indazol-3-one]
3 | 10 nM | 19 nM | Cc1cccc(-n2c(=O)c3c(n2C)[C@]2(C)CC[C@H]3C2(C)C)c1C [Example 21, (4S,7R)-2-(2,3-Dimethyl-phenyl)-1,7,8,8-tetramethyl-1,2,4,5,6,7-hexahydro-4,7-methano-indazol-3-one]
4 | 23 nM | 60 nM | Cn1c2c(c(=O)n1Cc1cccc(F)c1)[C@H]1CC[C@]2(C)C1(C)C [Example 32, (4S,7R)-2-(3-Fluoro-benzyl)-1,7,8,8-tetramethyl-1,2,4,5,6,7-hexahydro-4,7-methano-indazol-3-one]
5 | 472 nM | 134 nM | COc1cccc(Cn2c(=O)c3c(n2C)[C@]2(C)CC[C@H]3C2(C)C)c1 [Example 34, (4S,7R)-2-(3-Methoxy-benzyl)-1,7,8,8-tetramethyl-1,2,4,5,6,7-hexahydro-4,7-methano-indazol-3-one]
6 |  | 27 nM | Cn1c2c(c(=O)n1Cc1ccc(F)cc1C(F)(F)F)[C@H]1CC[C@]2(C)C1(C)C [Example 37, (4S,7R)-2-(4-Fluoro-2-trifluoromethyl-benzyl)-1,7,8,8-tetramethyl-1,2,4,5,6,7-hexahydro-4,7-methano-indazol-3-one]
7 | 101 nM | 243 nM | Cn1c2c(c(=O)n1Cc1ccc(C(N)=O)cc1)[C@H]1CC[C@]2(C)C1(C)C [Example 39, (4S,7R)-4-(1,7,8,8-Tetramethyl-3-oxo-1,3,4,5,6,7-hexahydro-4,7-methano-indazol-2-ylmethyl)-benzamide]
8 | 59 nM | 25 nM | Cn1c2c(c(=O)n1-c1cccc(-c3ccccc3)c1)[C@H]1CC[C@]2(C)C1(C)C [Example 43, (4S,7R)-2-Biphenyl-3-yl-1,7,8,8-tetramethyl-1,2,4,5,6,7-hexahydro-4,7-methano-indazol-3-one]
9 |  | 19 nM | CC1(C)[C@@H]2CC[C@@]1(C)c1c2c(=O)n(-c2ccccc2)n1CCc1ccccc1 [Example 66, (4S,7R)-7,8,8-Trimethyl-1-phenethyl-2-phenyl-1,2,4,5,6,7-hexahydro-4,7-methano-indazol-3-one]
10 |  | 17 nM | CC(C)c1cccc(-n2c(=O)c3c(n2C)[C@]2(C)CC[C@H]3C2(C)C)c1 [Example 75, (4S,7R)-2-(3-Isopropyl-phenyl)-1,7,8,8-tetramethyl-1,2,4,5,6,7-hexahydro-4,7-methano-indazol-3-one]
11 |  | 20 nM | Cn1c2c(c(=O)n1-c1ccc(O)cc1)[C@H]1CC[C@]2(C)C1(C)C [Example 76, (4S,7R)-2-(4-Hydroxy-phenyl)-1,7,8,8-tetramethyl-1,2,4,5,6,7-hexahydro-4,7-methano-indazol-3-one]
12 |  | 14 nM | CC(C)CCn1c2c(c(=O)n1-c1ccc(F)cc1F)[C@H]1CC[C@]2(C)C1(C)C [Example 87, (4S,7R)-2-(2,4-Difluoro-phenyl)-7,8,8-trimethyl-1-(3-methyl-butyl)-1,2,4,5,6,7-hexahydro-4,7-methano-indazol-3-one]
13 |  | 28 nM | CC(C)(C)c1ccc(Cn2c3c(c(=O)n2-c2ccc(F)cc2F)[C@H]2CC[C@]3(C)C2(C)C)cc1 [Example 98, (4S,7R)-1-(4-tert-Butyl-benzyl)-2-(2,4-difluoro-phenyl)-7,8,8-trimethyl-1,2,4,5,6,7-hexahydro-4,7-methano-indazol-3-one]
14 |  | 14 nM | COc1ccc(Cn2c3c(c(=O)n2-c2ccc(F)cc2F)[C@H]2CC[C@]3(C)C2(C)C)cc1 [Example 99, (4S,7R)-2-(2,4-Difluoro-phenyl)-1-(4-methoxy-benzyl)-7,8,8-trimethyl-1,2,4,5,6,7-hexahydro-4,7-methano-indazol-3-one]
15 |  | 11 nM | CC1(C)[C@@H]2CC[C@@]1(C)c1c2c(=O)n(-c2ccc(F)cc2F)n1Cc1ccc(C(F)(F)F)cc1 [Example 103, (4S,7R)-2-(2,4-Difluoro-phenyl)-7,8,8-trimethyl-1-(4-trifluoromethyl-benzyl)-1,2,4,5,6,7-hexahydro-4,7-methano-indazol-3-one]
16 |  | 36 nM | COc1ncccc1Cn1c2c(c(=O)n1-c1ccc(F)cc1F)[C@@H]1CC[C@@]2(C)C1(C)C [Example 113, (4R,7S)-2-(2,4-Difluoro-phenyl)-1-(2-methoxy-pyridin-3-ylmethyl)-7,8,8-trimethyl-1,2,4,5,6,7-hexahydro-4,7-methano-indazol-3-one]
17 |  | 18 nM | CC1(C)[C@H]2CC[C@]1(C)c1c2c(=O)n(-c2ccc(F)cc2Cl)n1Cc1ccccc1 [Example 120, (4R,7S)-1-Benzyl-2-(2-chloro-4-fluoro-phenyl)-7,8,8-trimethyl-1,2,4,5,6,7-hexahydro-4,7-methano-indazol-3-one]
18 |  | 21 nM | CC1(C)[C@H]2CC[C@]1(C)c1c2c(=O)n(-c2ccc(F)cc2Cl)n1Cc1ccc(F)cc1F [Example 122, (4R,7S)-2-(2-Chloro-4-fluoro-phenyl)-1-(2,4-difluoro-benzyl)-7,8,8-trimethyl-1,2,4,5,6,7-hexahydro-4,7-methano-indazol-3-one]
19 |  | 9 nM | CC1(C)[C@@H]2CC[C@@]1(C)c1c2c(=O)n(-c2ccc(F)cc2Cl)n1Cc1ccc(F)cc1F [Example 123, (4S,7R)-2-(2-Chloro-4-fluoro-phenyl)-1-(2,4-difluoro-benzyl)-7,8,8-trimethyl-1,2,4,5,6,7-hexahydro-4,7-methano-indazol-3-one]
20 |  | 6 nM | Cn1c2c(c(=O)n1-c1cccc(Cl)c1Cl)[C@H]1CC[C@]2(C)C1(C)C [Example 126, (4S,7R)-2-(2,3-Dichloro-phenyl)-1,7,8,8-tetramethyl-1,2,4,5,6,7-hexahydro-4,7-methano-indazol-3-one]
21 |  | 210 nM | Cn1c2c(c(=O)n1-c1cc(C(F)(F)F)ccc1F)[C@H]1CC[C@]2(C)C1(C)C [Example 132, (4S,7R)-2-(2-Fluoro-5-trifluoromethyl-phenyl)-1,7,8,8-tetramethyl-1,2,4,5,6,7-hexahydro-4,7-methano-indazol-3-one]
22 |  | 21 nM | Cn1c2c(c(=O)n1-c1cc(F)ccc1C(F)(F)F)[C@H]1CC[C@]2(C)C1(C)C [Example 133, (4S,7R)-2-(5-Fluoro-2-trifluoromethyl-phenyl)-1,7,8,8-tetramethyl-1,2,4,5,6,7-hexahydro-4,7-methano-indazol-3-one]
23 |  | 4 nM | Cc1cccc(-n2c(=O)c3c(n2Cc2ccccc2)[C@@]2(C)CC[C@@H]3C2(C)C)c1C [Example 137, (4R,7S)-1-Benzyl-2-(2,3-dimethyl-phenyl)-7,8,8-trimethyl-1,2,4,5,6,7-hexahydro-4,7-methano-indazol-3-one]
24 |  | 24 nM | Cn1c2c(c(=O)n1-c1ccc3ccccc3c1)[C@H]1CC[C@]2(C)C1(C)C [Example 144, (4S,7R)-1,7,8,8-Tetramethyl-2-naphthalen-2-yl-1,2,4,5,6,7-hexahydro-4,7-methano-indazol-3-one]
25 |  | 21 nM | CC1(C)[C@H]2CC[C@]1(C)c1c2c(=O)n(-c2ccc3ccccc3c2)n1Cc1ccccc1 [Example 145, (4R,7S)-1-Benzyl-7,8,8-trimethyl-2-naphthalen-2-yl-1,2,4,5,6,7-hexahydro-4,7-methano-indazol-3-one]
26 |  | 208 nM | Cc1nc(Cn2c(=O)c3c(n2Cc2ccccc2)[C@@]2(C)CC[C@@H]3C2(C)C)cs1 [Example 150, (4R,7S)-1-Benzyl-7,8,8-trimethyl-2-(2-methyl-thiazol-4-ylmethyl)-1,2,4,5,6,7-hexahydro-4,7-methano-indazol-3-one]
